# Tested on: endothelium-free isolated blood vessels
# Settings: concentration 10^−6 M; blood vessel rings contracted with noradrenalin 3×10^−7 M; 37° C.
# Procedure: Activity of manganese (manganese gluconate, manganese chloride and manganese carbonate) in an ex vivo model of endothelium-free isolated blood vessels:
# Blood vessel rings (or sections) were maintained in a 20 ml tank filled with survival fluid (Krebs Henseleit liquid) maintained at a temperature of 37° C. and oxygenated with a mixture of 95% oxygen and 5% CO2.
# The variations in the tension of the blood vessel were then recorded with an initial preloading of several […].
# The rings were contracted with noradrenalin at a concentration of 3×10^−7 M. On each preparation, the effect of the test products was evaluated at increasing and cumulative concentrations of from 3×10^−8 M to 10^−5 M.
row,Substance,% of relaxation [%]
1,manganese carbonate [MnCO3],100
2,manganese chloride [MnCl2],100
3,manganese gluconate,100
